The term IC50 denotes the midpoint of a concentration-inhibition curve.

The values below come from ChEMBL document CHEMBL1133379, “Bioisosteric modification of PETT-HIV-1 RT-inhibitors: synthesis and biological evaluation” (Bioorg Med Chem Lett, 2000).

Structures are written as SMILES. Bounds are passed on as bounds.

Assay [1] has as its system Human immunodeficiency virus 1. As to the kind of experiment: Antiviral activity against HIV-1 virus. Particulars: read-out: ED50 (the source's name). The class given is functional.
The target of assay [2] is Human immunodeficiency virus type 1 reverse transcriptase (Human immunodeficiency virus 1, UniProt Q72547). As to the kind of experiment: Inhibition of wild-type HIV-1 Reverse transcriptase.

Turning to `COc1ccccc1CCNC(=S)Nc1nccs1`, the EC50 in assay [1] was determined as 400 nM.
Consider `COc1cccc(C(=O)CC/N=C(\S)Nc2ccc(Br)cn2)c1`, for which the EC50 in assay [1] was 911 nM. Moreover, the IC50 in assay [2] is 80 nM.
The like results for `O=C(CCNC(=S)Nc1ccc(Br)cn1)c1ccccc1` were, in that order, 36 nM and under 27 nM.
The like results for `COc1ccccc1C(=O)CCNC(=S)Nc1ccc(Br)cn1` were, in that order, 76 nM and 3 nM.
As to `CCOc1ccc(F)c(CCNC(=O)Nc2ccc(Br)cn2)c1Cl`, the EC50 in assay [1] worked out at 50 nM.
Regarding `O=S(=O)(NCCc1ccccc1)Nc1cncc(Cl)c1`, the EC50 in assay [1] is over 100000 nM. Further, the IC50 in assay [2] was over 10000 nM.
The like results for `N=C(Nc1ccc(Br)cn1)N[C@@H]1C[C@@H]1c1ccccc1` were, in that order, 1200 nM and 180 nM.
The like results for `O=C(CCNC(=S)Nc1ccc(Br)cn1)c1ccccc1Cl` were, in that order, 100 nM and 10 nM.
With `Fc1cccc(F)c1CC/N=C(\S)Nc1ccc(Br)cn1`, the EC50 in assay [1] worked out at 10 nM.
`O=C(CC/N=C(\S)Nc1ccc(Cl)cn1)c1c(F)cccc1F`: in assay [1], the EC50 came to 28 nM. In assay [2], this molecule gave an IC50 of 6 nM.
The like results for `S=C(Nc1ccc(Br)cn1)N[C@@H]1C[C@@H]1c1ccccc1` were, in that order, 20 nM and 8 nM.
The like results for `S=C(NCCc1ccccc1)Nc1ccc(Cl)cn1` were, in that order, 30 nM and 3 nM.
The like results for `O=C(NCCC(=O)c1ccccc1F)Nc1ccc(Br)cn1` were, in that order, 201 nM and 54 nM.
For the molecule `N#CN/C(=N\c1ccc(Cl)cn1)NCCc1ccccc1`, the EC50 in assay [1] was over 100000 nM. Besides, the IC50 in assay [2] was over 10000 nM.
The like results for `O=C(CC/N=C(\S)Nc1ccc(Br)cn1)c1ccc(F)cc1` were, in that order, 300 nM and 47 nM.
Turning to `COc1ccccc1CCN=C(NC#N)Nc1nccs1`, the EC50 in assay [1] is over 100000 nM. In assay [2], this molecule registered an IC50 of over 10000 nM.
The like results for `O=C(CC/N=C(\S)Nc1ccc(Br)cn1)c1ccccc1F` were, in that order, 9 nM and 4 nM.
The like results for `O=C(CC/N=C(\S)Nc1ccc(Br)cn1)c1cc(F)ccc1F` were, in that order, 67 nM and under 25 nM.
The like results for `O=C(CCNC(=S)Nc1ccc(Br)cn1)c1c(F)cccc1F` were, in that order, 50 nM and 3 nM.
Regarding `CCOc1ccc(F)c(CC/N=C(\N)Nc2ccc(Br)cn2)c1Cl`, the EC50 in assay [1] stood at 1000 nM. The molecule also gave an IC50 in assay [2] of 400 nM.
Consider `CCOc1ccc(F)c(CCNC(=S)Nc2ccc(Br)cn2)c1Cl` [THIOUREA, N-(5-BROMO-2-PYRIDINYL)-N'-(2-(2-CHLORO-3-ETHOXY-6-FLUOROPHENYL)ETHYL)-], for which, in assay [1], the EC50 was 7 nM.
